Assay results from PMC6271714, “Hypotensive Effects and Angiotensin-Converting Enzyme Inhibitory Peptides of Reishi (Ganoderma lingzhi) Auto-Digested Extract” (Molecules, 2014).
Where a SMILES comes first, the peptide text is derived from it.

Biological target: T1, Angiotensin-Converting Enzyme (ACE) (Homo sapiens, UniProt P12821)
T1 construct: purchased Dojindo Laboratories ACE Kit-WST A502
Experiment: ACE inhibition assay (Dojindo ACE Kit-WST A502)
Assay type: biochemical
Conditions: synthesized peptides, six concentrations 10 to 100 μg/mL; read-out: IC50 Values (μM), ACE inhibition capacity
Procedure: Dojindo ACE Kit-WST A502 was used for testing the ACE-inhibitory activity. Principles of the kit were described in details in a previous report. Testing procedures were run strictly according to the manufacturer’s instructions using a 96-well plate, and inhibition rate was calculated based on the comparison of optical absorbance of sample-treated wells (As), control wells (Ac) and blank wells (Ab) as in the equation below. Absorbance was measured at 450 nm using microplate reader-Biotek-ELX800 (BioTek, Winooski, VT, USA): Inhibition rate (%) = [(Ac − As)/(Ac − Ab)]×100 (1)
For the peptides, six different concentrations of each peptide, ranging from 10 to 100 μg/mL, were assayed, and dose-response curves were plotted for the calculation of the IC50 values. IPP has been proven to be an ACE inhibitor [34] and thus was used as positive control (at concentrations ranging from 0.15 to 5 μg/mL).

T1 sequence (P12821 30-1306, species assumed): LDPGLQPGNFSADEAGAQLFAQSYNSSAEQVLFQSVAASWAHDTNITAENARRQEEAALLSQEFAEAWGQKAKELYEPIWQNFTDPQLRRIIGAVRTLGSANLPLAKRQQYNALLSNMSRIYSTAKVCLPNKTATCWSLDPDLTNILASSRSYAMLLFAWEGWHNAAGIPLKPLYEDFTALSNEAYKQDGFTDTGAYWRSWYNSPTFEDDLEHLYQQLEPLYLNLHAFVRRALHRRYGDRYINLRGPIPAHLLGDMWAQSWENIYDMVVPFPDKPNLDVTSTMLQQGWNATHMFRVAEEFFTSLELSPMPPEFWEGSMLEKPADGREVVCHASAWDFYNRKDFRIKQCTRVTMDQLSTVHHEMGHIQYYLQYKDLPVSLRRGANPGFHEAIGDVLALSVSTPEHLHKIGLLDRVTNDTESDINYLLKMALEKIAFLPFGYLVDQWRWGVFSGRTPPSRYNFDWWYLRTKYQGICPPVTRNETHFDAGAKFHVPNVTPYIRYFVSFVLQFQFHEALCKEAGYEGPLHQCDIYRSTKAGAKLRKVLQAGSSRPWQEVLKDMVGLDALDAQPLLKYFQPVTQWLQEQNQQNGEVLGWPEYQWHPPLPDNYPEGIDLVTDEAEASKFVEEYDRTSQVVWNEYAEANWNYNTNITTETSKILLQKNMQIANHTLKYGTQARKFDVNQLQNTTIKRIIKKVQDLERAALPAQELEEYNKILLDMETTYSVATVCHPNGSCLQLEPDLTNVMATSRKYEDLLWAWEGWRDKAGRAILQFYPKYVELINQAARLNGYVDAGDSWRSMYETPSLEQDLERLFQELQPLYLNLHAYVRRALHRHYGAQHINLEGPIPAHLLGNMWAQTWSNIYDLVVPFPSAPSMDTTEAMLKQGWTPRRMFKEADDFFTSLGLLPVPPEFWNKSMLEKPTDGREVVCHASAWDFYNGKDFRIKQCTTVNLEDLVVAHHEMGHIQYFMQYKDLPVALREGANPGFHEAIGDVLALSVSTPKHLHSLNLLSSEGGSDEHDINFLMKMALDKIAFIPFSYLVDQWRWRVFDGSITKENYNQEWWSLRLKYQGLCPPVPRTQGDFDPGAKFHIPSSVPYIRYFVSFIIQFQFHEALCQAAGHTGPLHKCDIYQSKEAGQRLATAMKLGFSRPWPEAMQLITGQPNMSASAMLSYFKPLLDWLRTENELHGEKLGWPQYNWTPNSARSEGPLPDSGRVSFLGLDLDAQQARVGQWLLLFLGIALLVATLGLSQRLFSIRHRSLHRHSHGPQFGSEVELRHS

Point of comparison: `CC[C@H](C)[C@H](NC(=O)[C@H](CO)NC(=O)[C@@H](N)CC(N)=O)C(=O)O` [Asn-Ser-Ile] (H-Asn-Ser-Ile-OH), IC50 342 µM. Against it:
- CC(C)C[C@H](NC(=O)[C@@H](N)CO)C(=O)O [Ser-Leu] (H-Ser-Leu-OH; N-terminus and C-terminus assumed) — not separable, > 200 µM
- CC[C@H](C)[C@H](N)C(=O)N1CCC[C@H]1C(=O)N[C@H](C(=O)O)[C@@H](C)O [Ile-Pro-Thr] (H-Ile-Pro-Thr-OH) — 4.7-fold lower, 73.1 µM
- CC[C@H](C)[C@H](NC(=O)[C@@H](N)CO)C(=O)O [Ser-Ile] (H-Ser-Ile-OH) — not separable, > 200 µM
- CC[C@H](C)[C@H](N)C(=O)N[C@@H](CCCNC(=N)N)C(=O)O [Ile-Arg] — 4.6-fold lower, 73.7 µM
- C[C@H](N)C(=O)N[C@@H](Cc1ccc(O)cc1)C(=O)O [Ala-Tyr] (H-Ala-Tyr-OH) — 2.1-fold lower, 163 µM
- CC(C)C[C@H](NC(=O)[C@H](C)N)C(=O)O [Ala-Leu] (H-Ala-Leu-OH) — not separable, > 200 µM
- CC(C)C[C@H](NC(=O)[C@@H]1CCCN1C(=O)CN)C(=O)O [Gly-Pro-Leu] (H-Gly-Pro-Leu-OH) — higher, > 500 µM
- CC(C)C[C@H](NC(=O)[C@@H](N)[C@@H](C)O)C(=O)O [Thr-Leu] (H-Thr-Leu-OH) — not separable, > 200 µM
- CC(C)[C@H](NC(=O)[C@@H](N)CCCCN)C(=O)N1CCC[C@H]1C(=O)O [Lys-Val-Pro] (H-Lys-Val-Pro-OH) — higher, > 500 µM
- N[C@@H](CO)C(=O)N[C@@H](Cc1ccc(O)cc1)C(=O)O [Ser-Tyr] (H-Ser-Tyr-OH) — 3.6-fold lower, 94.7 µM
